Values after ≈ are worked out from the molar mass of the structure shown. Blank lines part the entries; values can stand above or below the compound they belong to.
What was measured:
Escherichia coli = experiment: Antibacterial activity against Escherichia coli assessed as reduction in bacterial growth measured after 24 hrs by two-fold serial dilution method; type: functional
Pseudomonas aeruginosa = experiment: Antibacterial activity against Pseudomonas aeruginosa assessed as reduction in bacterial growth measured after 24 hrs by two-fold serial dilution method; type: functional
Bacillus subtilis = experiment: Antibacterial activity against Bacillus subtilis assessed as reduction in bacterial growth measured after 24 hrs by two-fold serial dilution method; type: functional
Staphylococcus aureus = experiment: Antibacterial activity against Staphylococcus aureus assessed as reduction in bacterial growth measured after 24 hrs by two-fold serial dilution method; type: functional
Klebsiella pneumoniae = experiment: Antibacterial activity against Klebsiella pneumoniae assessed as reduction in bacterial growth measured after 24 hrs by two-fold serial dilution method; type: functional
Streptococcus pneumoniae = experiment: Antibacterial activity against Streptococcus pneumoniae assessed as reduction in bacterial growth measured after 24 hrs by two-fold serial dilution method; type: functional
[1] = target: T1, Beta-ketoacyl-[acyl-carrier-protein] synthase III (Escherichia coli K-12, UniProt P0A6R0); experiment: Inhibition of Escherichia coli FabH
T1 sequence (P0A6R0 whole entry): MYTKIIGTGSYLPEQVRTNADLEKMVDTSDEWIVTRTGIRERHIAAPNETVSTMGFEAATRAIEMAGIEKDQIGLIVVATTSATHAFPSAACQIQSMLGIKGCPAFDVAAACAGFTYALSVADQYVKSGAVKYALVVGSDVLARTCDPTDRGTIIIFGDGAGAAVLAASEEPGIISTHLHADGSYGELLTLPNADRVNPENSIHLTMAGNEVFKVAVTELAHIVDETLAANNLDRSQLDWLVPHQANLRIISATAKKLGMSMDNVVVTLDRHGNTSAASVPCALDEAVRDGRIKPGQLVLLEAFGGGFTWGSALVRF

Erythrocyte = experiment: Hemolytic activity in human erythrocytes assessed as hemolysis by spectrophotometric analysis; type: toxicity, cell-based
[2] = Cytotoxicity against mouse NIH3T3 cells incubated for 24 hrs by MTT analysis; type: toxicity, cell-based

Structure (SMILES): COc1ccc(NC(=O)c2ccc3c(c2)OCCCO3)c2ncccc12
MIC (Escherichia coli): > 100 µg/mL
MIC (Pseudomonas aeruginosa): 50 µg/mL (≈ 143 µM)
MIC (Bacillus subtilis): > 100 µg/mL
MIC (Staphylococcus aureus): > 100 µg/mL
MIC (Klebsiella pneumoniae): > 100 µg/mL
MIC (Streptococcus pneumoniae): 50 µg/mL (≈ 143 µM)

Structure (SMILES): O=C(Nc1ccnc2ccccc12)c1ccc2c(c1)OCCCO2
MIC (Escherichia coli): 50 µg/mL (≈ 156 µM)
MIC (Pseudomonas aeruginosa): 50 µg/mL (≈ 156 µM)
MIC (Bacillus subtilis): 50 µg/mL (≈ 156 µM)
MIC (Staphylococcus aureus): 25 µg/mL (≈ 78 µM)
MIC (Klebsiella pneumoniae): 50 µg/mL (≈ 156 µM)
MIC (Streptococcus pneumoniae): 50 µg/mL (≈ 156 µM)

Structure (SMILES): CCOC(=O)c1c(NC(=O)c2ccc3c(c2)OCCCO3)sc2c1CCCC2
MIC (Escherichia coli): > 100 µg/mL
MIC (Pseudomonas aeruginosa): 50 µg/mL (≈ 125 µM)
MIC (Bacillus subtilis): 50 µg/mL (≈ 125 µM)
MIC (Staphylococcus aureus): > 100 µg/mL
MIC (Klebsiella pneumoniae): 50 µg/mL (≈ 125 µM)
MIC (Streptococcus pneumoniae): 50 µg/mL (≈ 125 µM)

Structure (SMILES): O=C(Nc1cccc2ncccc12)c1ccc2c(c1)OCCCO2
MIC (Escherichia coli): 50 µg/mL (≈ 156 µM)
MIC (Pseudomonas aeruginosa): 25 µg/mL (≈ 78 µM)
MIC (Bacillus subtilis): 50 µg/mL (≈ 156 µM)
MIC (Staphylococcus aureus): 50 µg/mL (≈ 156 µM)
MIC (Klebsiella pneumoniae): 25 µg/mL (≈ 78 µM)
MIC (Streptococcus pneumoniae): 25 µg/mL (≈ 78 µM)

Structure (SMILES): O=C(c1ccc2c(c1)OCCCO2)N1CCCCC1
MIC (Escherichia coli): 25 µg/mL (≈ 95.7 µM)
MIC (Pseudomonas aeruginosa): 25 µg/mL (≈ 95.7 µM)
MIC (Bacillus subtilis): 12.5 µg/mL (≈ 47.8 µM)
MIC (Staphylococcus aureus): 25 µg/mL (≈ 95.7 µM)
MIC (Klebsiella pneumoniae): 25 µg/mL (≈ 95.7 µM)
MIC (Streptococcus pneumoniae): 25 µg/mL (≈ 95.7 µM)

Structure (SMILES): O=C(Nc1ccncn1)c1ccc2c(c1)OCCCO2
MIC (Escherichia coli): 50 µg/mL (≈ 184 µM)
MIC (Pseudomonas aeruginosa): 50 µg/mL (≈ 184 µM)
MIC (Bacillus subtilis): > 100 µg/mL
MIC (Staphylococcus aureus): 50 µg/mL (≈ 184 µM)
MIC (Klebsiella pneumoniae): > 100 µg/mL
MIC (Streptococcus pneumoniae): 50 µg/mL (≈ 184 µM)

Structure (SMILES): O=C(c1ccc2c(c1)OCCCO2)N1CCN(CCO)CC1
MIC (Escherichia coli): 50 µg/mL (≈ 163 µM)
MIC (Pseudomonas aeruginosa): 25 µg/mL (≈ 81.6 µM)
MIC (Bacillus subtilis): > 100 µg/mL
MIC (Staphylococcus aureus): 25 µg/mL (≈ 81.6 µM)
MIC (Klebsiella pneumoniae): > 100 µg/mL
MIC (Streptococcus pneumoniae): 25 µg/mL (≈ 81.6 µM)

Now from value to compound, other results behind:

MIC (Escherichia coli): 3.13 µg/mL (≈ 6.47 µM)
MIC (Pseudomonas aeruginosa): 3.13 µg/mL (≈ 6.47 µM)
MIC (Bacillus subtilis): 1.56 µg/mL (≈ 3.23 µM)
MIC (Staphylococcus aureus): 1.56 µg/mL (≈ 3.23 µM)
MIC (Klebsiella pneumoniae): 3.13 µg/mL (≈ 6.47 µM)
MIC (Streptococcus pneumoniae): 50 µg/mL (≈ 103 µM)
Structure (SMILES): NC[C@H]1O[C@H](O[C@H]2[C@H](O)[C@@H](O[C@H]3O[C@H](CO)[C@@H](O)[C@H](N)[C@H]3O)[C@H](N)C[C@@H]2N)[C@H](N)[C@@H](O)[C@@H]1O [BEKANAMYCIN]

MIC (Escherichia coli): 25 µg/mL (≈ 86.1 µM)
MIC (Pseudomonas aeruginosa): 50 µg/mL (≈ 172 µM)
MIC (Bacillus subtilis): > 100 µg/mL
MIC (Staphylococcus aureus): 25 µg/mL (≈ 86.1 µM)
MIC (Klebsiella pneumoniae): 50 µg/mL (≈ 172 µM)
MIC (Streptococcus pneumoniae): 50 µg/mL (≈ 172 µM)
Structure (SMILES): CCN1CCN(C(=O)c2ccc3c(c2)OCCCO3)CC1

MIC (Escherichia coli): 12.5 µg/mL (≈ 37.4 µM)
MIC (Pseudomonas aeruginosa): 12.5 µg/mL (≈ 37.4 µM)
MIC (Bacillus subtilis): 25 µg/mL (≈ 74.8 µM)
MIC (Staphylococcus aureus): 12.5 µg/mL (≈ 37.4 µM)
MIC (Klebsiella pneumoniae): 50 µg/mL (≈ 150 µM)
MIC (Streptococcus pneumoniae): 25 µg/mL (≈ 74.8 µM)
Structure (SMILES): Cc1ccc2cccc(NC(=O)c3ccc4c(c3)OCCCO4)c2n1

MIC (Escherichia coli): 3.13 µg/mL (≈ 10.2 µM)
MIC (Pseudomonas aeruginosa): 6.25 µg/mL (≈ 20.3 µM)
MIC (Bacillus subtilis): 12.5 µg/mL (≈ 40.5 µM)
MIC (Staphylococcus aureus): 6.25 µg/mL (≈ 20.3 µM)
MIC (Klebsiella pneumoniae): 3.13 µg/mL (≈ 10.2 µM)
MIC (Streptococcus pneumoniae): 12.5 µg/mL (≈ 40.5 µM)
IC50 [1]: 13.1 µM
Structure (SMILES): O=C(Nc1ccc2cc[nH]c2c1)c1ccc2c(c1)OCCCO2
HC30 (Erythrocyte): > 10 µg/mL
IC50 at 24 h [2]: 198 µM

MIC (Escherichia coli): 6.25 µg/mL (≈ 22.6 µM)
MIC (Pseudomonas aeruginosa): 3.13 µg/mL (≈ 11.3 µM)
MIC (Bacillus subtilis): 6.25 µg/mL (≈ 22.6 µM)
MIC (Staphylococcus aureus): 3.13 µg/mL (≈ 11.3 µM)
MIC (Klebsiella pneumoniae): 6.25 µg/mL (≈ 22.6 µM)
MIC (Streptococcus pneumoniae): 12.5 µg/mL (≈ 45.2 µM)
IC50 [1]: 38.2 µM
Structure (SMILES): CN1CCN(C(=O)c2ccc3c(c2)OCCCO3)CC1
HC30 (Erythrocyte): > 10 µg/mL
IC50 at 24 h [2]: 175 µM

MIC (Escherichia coli): 12.5 µg/mL (≈ 46.2 µM)
MIC (Pseudomonas aeruginosa): 50 µg/mL (≈ 185 µM)
MIC (Bacillus subtilis): 25 µg/mL (≈ 92.5 µM)
MIC (Staphylococcus aureus): 50 µg/mL (≈ 185 µM)
MIC (Klebsiella pneumoniae): 50 µg/mL (≈ 185 µM)
MIC (Streptococcus pneumoniae): > 100 µg/mL
Structure (SMILES): O=C(Nc1ccccn1)c1ccc2c(c1)OCCCO2

MIC (Escherichia coli): 12.5 µg/mL (≈ 39 µM)
MIC (Pseudomonas aeruginosa): 25 µg/mL (≈ 78 µM)
MIC (Bacillus subtilis): 12.5 µg/mL (≈ 39 µM)
MIC (Staphylococcus aureus): 25 µg/mL (≈ 78 µM)
MIC (Klebsiella pneumoniae): 50 µg/mL (≈ 156 µM)
MIC (Streptococcus pneumoniae): 25 µg/mL (≈ 78 µM)
Structure (SMILES): O=C(Nc1cccc2cccnc12)c1ccc2c(c1)OCCCO2

MIC (Escherichia coli): 6.25 µg/mL (≈ 22.7 µM)
MIC (Pseudomonas aeruginosa): 6.25 µg/mL (≈ 22.7 µM)
MIC (Bacillus subtilis): 12.5 µg/mL (≈ 45.4 µM)
MIC (Staphylococcus aureus): 6.25 µg/mL (≈ 22.7 µM)
Structure (SMILES): CC1(CCNC(=O)c2ccc3c(c2)OCCCO3)N=N1

MIC (Escherichia coli): 12.5 µg/mL (≈ 43.2 µM)
MIC (Pseudomonas aeruginosa): 25 µg/mL (≈ 86.4 µM)
MIC (Bacillus subtilis): 25 µg/mL (≈ 86.4 µM)
MIC (Staphylococcus aureus): 25 µg/mL (≈ 86.4 µM)
Structure (SMILES): CC1(CCCNC(=O)c2ccc3c(c2)OCCCO3)N=N1

MIC (Escherichia coli): 12.5 µg/mL (≈ 31 µM)
MIC (Pseudomonas aeruginosa): 50 µg/mL (≈ 124 µM)
MIC (Bacillus subtilis): 50 µg/mL (≈ 124 µM)
MIC (Staphylococcus aureus): 50 µg/mL (≈ 124 µM)
MIC (Klebsiella pneumoniae): 50 µg/mL (≈ 124 µM)
MIC (Streptococcus pneumoniae): > 100 µg/mL
IC50 [1]: 19.6 µM
Structure (SMILES): COC(=O)c1cccc(-c2ccc(NC(=O)c3ccc4c(c3)OCCCO4)cc2)c1
HC30 (Erythrocyte): > 10 µg/mL
IC50 at 24 h [2]: 161 µM

From ChEMBL document CHEMBL5528027, “Target identification, and optimization of dioxygenated amide derivatives as potent antibacterial agents with FabH inhibitory activity” (Eur J Med Chem, 2024)
